Laboratory results published in ChEMBL document CHEMBL5647693, “Molecular basis underlying resistance to Mps1/TTK inhibitors” (Oncogene, 2016).

Assays:
Test in all cases: cells
Type in all cases: functional, cell-based
U2OS = details: Homo sapiens, 120 h
HCT-116 [1] = details: Homo sapiens, HCT-116, 120 h
HCT-116 [2] = details: Homo sapiens, HCT-116, 120 h; remark: listed apart in the source
DLD-1 [3] = details: Homo sapiens, DLD-1, 120 h
DLD-1 [4] = details: Homo sapiens, DLD-1, 120 h; remark: listed apart in the source
HeLa [5] = details: Homo sapiens, 120 h
HCT-116 [6] = details: Homo sapiens, HCT-116, 120 h; remark: listed apart in the source
DLD-1 [7] = details: Homo sapiens, DLD-1, 120 h; remark: listed apart in the source
HeLa [8] = details: Homo sapiens, 120 h; remark: listed apart in the source
HeLa [9] = details: Homo sapiens, 120 h; remark: listed apart in the source
HeLa [10] = details: Homo sapiens, 120 h; remark: listed apart in the source
HCT-116 [11] = details: Homo sapiens, HCT-116, 120 h; remark: listed apart in the source

IC50 (U2OS): 153 nM
IC50 (HCT-116 [1]): 1620 nM
IC50 (HCT-116 [2]): > 2000 nM
IC50 (DLD-1 [3]): 165 nM
IC50 (DLD-1 [4]): 1020 nM
IC50 (HeLa [5]): 1330 nM
IC50 (HCT-116 [6]): 171 nM
IC50 (DLD-1 [7]): 198 nM
IC50 (HeLa [8]): 1720 nM
IC50 (HeLa [9]): > 2000 nM
IC50 (HeLa [10]): 433 nM
IC50 (HCT-116 [11]): 154 nM
SMILES: CCc1cccc(CC)c1NC(=O)c1nn(C)c2c1CCc1cnc(Nc3ccc(C(=O)NC4CCN(C)CC4)cc3OC(F)(F)F)nc1-2
